Measured values reported in ChEMBL document CHEMBL4630905 (2021).
One block for each compound: values may come before it. Active and inactive are the calls of the source. The calls are words filed in the database; no cut-off is given here.

Experiments:
[1] = target: D(2) dopamine receptor (Homo sapiens) (UniProt P14416); conditions: Compound concentration 10.0 uM
D(4) dopamine receptor = D(4) dopamine receptor (Homo sapiens, UniProt P21917); assay: GPCRScan assay: inhibition of D4; design: radioligand conc. used [nm] 0.6 – 1.7, parental cells Stable HEK
[2] = target: SWI/SNF-related matrix-associated actin-dependent regulator of chromatin subfamily A member 2 (Homo sapiens, UniProt P51531); assay: SMARCA2 DiscoverX BROMOscan
[3] = target: D(4) dopamine receptor (Homo sapiens) (UniProt P21917); conditions: Compound concentration 10.0 uM
[4] = target: Alpha-1B adrenergic receptor (Homo sapiens) (UniProt P35368); conditions: Compound concentration 10.0 uM
[5] = target: D(3) dopamine receptor (Homo sapiens) (UniProt P35462); conditions: Compound concentration 10.0 uM
[6] = target: 5-hydroxytryptamine receptor 1D (Homo sapiens) (UniProt P28221); conditions: Compound concentration 10.0 uM
[7] = target: D(1B) dopamine receptor (Homo sapiens) (UniProt P21918); conditions: Compound concentration 10.0 uM
Rattus norvegicus = organism: Rattus norvegicus; conditions: Compound concentration 10.0 uM
[8] = target: Alpha-2C adrenergic receptor (Homo sapiens) (UniProt P18825); conditions: Compound concentration 10.0 uM
[9] = target: 5-hydroxytryptamine receptor 3A (Homo sapiens) (UniProt P46098); conditions: Compound concentration 10.0 uM
[10] = target: Beta-1 adrenergic receptor (Homo sapiens) (UniProt P08588); conditions: Compound concentration 10.0 uM
[11] = target: 5-hydroxytryptamine receptor 1B (Homo sapiens) (UniProt P28222); conditions: Compound concentration 10.0 uM
[12] = target: T1, GABA-A receptor; anion channel (Rattus norvegicus) (UniProt O09028+P15431+P18506+P18508+P19969+P20236+P23574+P23576+P28471+P28473+P30191+P62813+P63079+P63138+Q91ZM7+Q9ES14); conditions: Compound concentration 10.0 uM
[13] = target: T2, Bromodomain testis-specific protein (Homo sapiens, UniProt Q58F21); assay: BRDT (1,2) DiscoverX BROMOscan
HL-60 = assay: Proliferation assay (HL60 cells); type: functional, cell-based; conditions: Homo sapiens
[14] = target: Alpha-2A adrenergic receptor (Homo sapiens) (UniProt P08913); conditions: Compound concentration 10.0 uM
[15] = target: Chromatin remodeling regulator CECR2 (Homo sapiens, UniProt Q9BXF3); assay: CECR2 DiscoverX BROMOscan
[16] = target: Transcription intermediary factor 1-alpha (Homo sapiens, UniProt O15164); assay: TRIM24 (TIF1alpha) (PHD & BD) DiscoverX BROMOscan
[17] = target: Histone acetyltransferase p300 (Homo sapiens, UniProt Q09472); assay: EP300 DiscoverX BROMOscan
[18] = target: SWI/SNF-related matrix-associated actin-dependent regulator of chromatin subfamily A member 4 (Homo sapiens, UniProt P51532); assay: SMARCA4 DiscoverX BROMOscan
[19] = target: Histamine H1 receptor (Homo sapiens) (UniProt P35367); conditions: Compound concentration 10.0 uM
[20] = target: T1, GABA-A receptor; anion channel (Rattus norvegicus); conditions: Compound concentration 10.0 uM; remark: listed apart in the source
[21] = target: Muscarinic acetylcholine receptor M2 (Homo sapiens) (UniProt P08172); conditions: Compound concentration 10.0 uM
[22] = target: T3, Bromodomain-containing protein 3 (Homo sapiens, UniProt Q15059); assay: BET mutant TR-FRET assay (BRD3 BD2)
[23] = target: 5-hydroxytryptamine receptor 2C (Homo sapiens) (UniProt P28335); conditions: Compound concentration 10.0 uM
[24] = target: Bromodomain-containing protein 7 (Homo sapiens, UniProt Q9NPI1); assay: BRD7 DiscoverX BROMOscan
[25] = target: Nucleosome-remodeling factor subunit BPTF (Homo sapiens, UniProt Q12830); assay: FALZ DiscoverX BROMOscan
[26] = target: 5-hydroxytryptamine receptor 2A (Homo sapiens) (UniProt P28223); conditions: Compound concentration 10.0 uM
[27] = target: E3 ubiquitin-protein ligase TRIM33 (Homo sapiens, UniProt Q9UPN9); assay: TRIM33 (TIF1gamma) (PHD & BD) DiscoverX BROMOscan
[28] = target: Bromodomain and WD repeat-containing protein 1 (Homo sapiens, UniProt Q9NSI6); assay: WDR9 (BD2) DiscoverX BROMOscan
[29] = target: Histamine H4 receptor (Homo sapiens) (UniProt Q9H3N8); conditions: Compound concentration 10.0 uM
[30] = target: Histamine H3 receptor (Homo sapiens) (UniProt Q9Y5N1); conditions: Compound concentration 10.0 uM
Peregrin = Peregrin (Homo sapiens, UniProt P55201); assay: BRPF1 DiscoverX BROMOscan
[31] = target: T4, Bromodomain-containing protein 8 (Homo sapiens, UniProt Q9H0E9); assay: BRD8 (BD2) DiscoverX BROMOscan
[32] = target: Sodium-dependent noradrenaline transporter (Homo sapiens) (UniProt P23975); conditions: Compound concentration 10.0 uM
[33] = target: Bromodomain-containing protein 1 (Homo sapiens, UniProt O95696); assay: BRD1 DiscoverX BROMOscan
[34] = target: Beta-2 adrenergic receptor (Homo sapiens) (UniProt P07550); conditions: Compound concentration 10.0 uM
[35] = target: T3, Bromodomain-containing protein 3; assay: BET mutant TR-FRETassay (BRD3 BD1)
[36] = target: Muscarinic acetylcholine receptor M5 (Homo sapiens) (UniProt P08912); conditions: Compound concentration 10.0 uM
Tumor necrosis factor = Tumor necrosis factor (Homo sapiens, UniProt P01375); assay: In vitro inhibition of TNFalpha in Lipopolysaccharide-stimulated human whole blood; type: tissue-based
CREB-binding protein = CREB-binding protein (Homo sapiens, UniProt Q92793); assay: CREBBP DiscoverX BROMOscan
[37] = target: T5, Bromodomain-containing protein 2 (Homo sapiens, UniProt P25440); assay: BET mutant TR-FRET assay (BRD2 BD2)
[38] = target: Sigma intracellular receptor 2 (Homo sapiens) (UniProt Q5BJF2); conditions: Compound concentration 10.0 uM
[39] = target: Histone acetyltransferase KAT2A (Homo sapiens, UniProt Q92830); assay: GCN5L2 DiscoverX BROMOscan
[40] = target: Bromodomain and PHD finger-containing protein 3 (Homo sapiens, UniProt Q9ULD4); assay: BRPF3 DiscoverX BROMOscan
[41] = target: 5-hydroxytryptamine receptor 5A (Homo sapiens) (UniProt P47898); conditions: Compound concentration 10.0 uM
[42] = target: Alpha-1D adrenergic receptor (Homo sapiens) (UniProt P25100); conditions: Compound concentration 10.0 uM
[43] = target: Histamine H2 receptor (Homo sapiens) (UniProt P25021); conditions: Compound concentration 10.0 uM
[44] = target: Histone acetyltransferase KAT2B (Homo sapiens, UniProt Q92831); assay: PCAF DiscoverX BROMOscan
[45] = target: Bromodomain adjacent to zinc finger domain protein 2B (Homo sapiens, UniProt Q9UIF8); assay: BAZ2B DiscoverX BROMOscan
[46] = target: Sodium-dependent serotonin transporter (Homo sapiens) (UniProt P31645); conditions: Compound concentration 10.0 uM
THP-1 = assay: Proliferation assay (THP-1 cells); type: functional, cell-based; conditions: Homo sapiens
[47] = target: Alpha-2B adrenergic receptor (Homo sapiens) (UniProt P18089); conditions: Compound concentration 10.0 uM
C-C motif chemokine 2 = C-C motif chemokine 2 (Homo sapiens, UniProt P13500); assay: In vitro inhibition of MCP-1 in Lipopolysaccharide-stimulated human whole blood; type: tissue-based
[48] = target: 5-hydroxytryptamine receptor 1A (Homo sapiens) (UniProt P08908); conditions: Compound concentration 10.0 uM
[49] = target: T2, Bromodomain testis-specific protein; assay: BET mutant TR-FRET assay (BRDT BD1)
[50] = target: T4, Bromodomain-containing protein 8; assay: BRD8 (BD1) DiscoverX BROMOscan
[51] = target: T5, Bromodomain-containing protein 2; assay: BET mutant TR-FRET assay (BRD2 BD1)
[52] = target: Muscarinic acetylcholine receptor M1 (Homo sapiens) (UniProt P11229); conditions: Compound concentration 10.0 uM
[53] = target: D(1A) dopamine receptor (Homo sapiens) (UniProt P21728); conditions: Compound concentration 10.0 uM
MV4-11 = assay: Proliferation assay (MV-4−11 cells); type: functional, cell-based; conditions: Homo sapiens
[54] = target: Sodium-dependent dopamine transporter (Homo sapiens) (UniProt Q01959); conditions: Compound concentration 10.0 uM
Interleukin-6 = Interleukin-6 (Homo sapiens, UniProt P05231); assay: In vitro inhibition of IL-6 in Lipopolysaccharide-stimulated human whole blood; type: tissue-based
[55] = target: Muscarinic acetylcholine receptor M4 (Homo sapiens) (UniProt P08173); conditions: Compound concentration 10.0 uM
Protein polybromo-1 = Protein polybromo-1 (Homo sapiens, UniProt Q86U86); assay: PBRM1 (BD2) DiscoverX BROMOscan
[56] = target: Beta-3 adrenergic receptor (Homo sapiens) (UniProt P13945); conditions: Compound concentration 10.0 uM
[57] = target: Bromodomain-containing protein 9 (Homo sapiens, UniProt Q9H8M2); assay: BRD9 DiscoverX BROMOscan
[58] = target: T2, Bromodomain testis-specific protein; assay: BET mutant TR-FRET assay (BRDT BD2)
[59] = target: Alpha-1A adrenergic receptor (Homo sapiens) (UniProt P35348); conditions: Compound concentration 10.0 uM
[60] = target: Muscarinic acetylcholine receptor M3 (Homo sapiens) (UniProt P20309); conditions: Compound concentration 10.0 uM
[61] = target: 5-hydroxytryptamine receptor 1E (Homo sapiens) (UniProt P28566); conditions: Compound concentration 10.0 uM
[62] = target: GABA-A receptor; anion channel; assay: GPCRScan assay: inhibition of GABAA/BZP; type: protein-complex assay, Rattus norvegicus; design: radioligand conc. used [nm] 0.6 – 4.0, parental cells brain tissue

T3 sequence (Q15059 2-726 limits assumed, change not shown): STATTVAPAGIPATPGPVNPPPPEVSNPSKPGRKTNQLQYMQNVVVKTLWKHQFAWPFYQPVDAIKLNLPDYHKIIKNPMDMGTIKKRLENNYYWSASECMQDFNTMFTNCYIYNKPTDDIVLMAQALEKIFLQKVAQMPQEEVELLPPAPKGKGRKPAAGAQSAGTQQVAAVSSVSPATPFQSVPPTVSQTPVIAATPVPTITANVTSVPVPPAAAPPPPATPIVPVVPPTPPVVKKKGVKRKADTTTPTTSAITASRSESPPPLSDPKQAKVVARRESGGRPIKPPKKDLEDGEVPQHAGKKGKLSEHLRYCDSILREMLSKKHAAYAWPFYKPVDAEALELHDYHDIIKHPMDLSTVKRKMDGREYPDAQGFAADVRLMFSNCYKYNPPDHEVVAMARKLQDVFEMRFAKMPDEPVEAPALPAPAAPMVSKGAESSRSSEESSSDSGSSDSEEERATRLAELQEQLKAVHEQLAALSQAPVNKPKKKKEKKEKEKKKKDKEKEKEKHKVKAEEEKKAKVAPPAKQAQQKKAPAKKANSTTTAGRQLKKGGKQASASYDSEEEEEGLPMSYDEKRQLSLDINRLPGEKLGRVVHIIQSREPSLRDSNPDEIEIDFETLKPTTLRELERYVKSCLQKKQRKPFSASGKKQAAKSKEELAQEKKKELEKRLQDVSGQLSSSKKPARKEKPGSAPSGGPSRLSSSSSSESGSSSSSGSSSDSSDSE
T5 sequence (P25440 whole entry, looked up, change not shown): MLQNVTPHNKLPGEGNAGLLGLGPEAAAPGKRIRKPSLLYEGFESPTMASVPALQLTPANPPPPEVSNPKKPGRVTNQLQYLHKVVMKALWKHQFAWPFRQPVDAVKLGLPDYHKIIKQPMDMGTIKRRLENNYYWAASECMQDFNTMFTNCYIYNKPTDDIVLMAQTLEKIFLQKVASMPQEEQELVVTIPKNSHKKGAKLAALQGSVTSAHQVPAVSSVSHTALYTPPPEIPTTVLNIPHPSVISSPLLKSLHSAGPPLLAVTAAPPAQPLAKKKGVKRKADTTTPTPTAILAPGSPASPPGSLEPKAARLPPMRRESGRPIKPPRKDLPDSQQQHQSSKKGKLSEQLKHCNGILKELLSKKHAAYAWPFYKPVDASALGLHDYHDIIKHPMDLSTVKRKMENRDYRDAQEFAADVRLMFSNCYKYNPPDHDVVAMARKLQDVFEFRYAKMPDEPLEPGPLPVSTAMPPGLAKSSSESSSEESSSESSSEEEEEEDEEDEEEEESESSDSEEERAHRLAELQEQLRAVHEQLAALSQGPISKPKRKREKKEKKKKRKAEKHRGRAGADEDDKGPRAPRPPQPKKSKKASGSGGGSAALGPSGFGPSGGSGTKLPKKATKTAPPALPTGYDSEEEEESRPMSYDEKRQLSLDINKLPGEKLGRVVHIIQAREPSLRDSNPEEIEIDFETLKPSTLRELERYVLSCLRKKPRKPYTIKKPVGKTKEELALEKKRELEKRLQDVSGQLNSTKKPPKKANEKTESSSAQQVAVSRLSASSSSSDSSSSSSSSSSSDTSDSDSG
Muscarinic acetylcholine receptor M5 (Homo sapiens), sequence (P08912 whole entry): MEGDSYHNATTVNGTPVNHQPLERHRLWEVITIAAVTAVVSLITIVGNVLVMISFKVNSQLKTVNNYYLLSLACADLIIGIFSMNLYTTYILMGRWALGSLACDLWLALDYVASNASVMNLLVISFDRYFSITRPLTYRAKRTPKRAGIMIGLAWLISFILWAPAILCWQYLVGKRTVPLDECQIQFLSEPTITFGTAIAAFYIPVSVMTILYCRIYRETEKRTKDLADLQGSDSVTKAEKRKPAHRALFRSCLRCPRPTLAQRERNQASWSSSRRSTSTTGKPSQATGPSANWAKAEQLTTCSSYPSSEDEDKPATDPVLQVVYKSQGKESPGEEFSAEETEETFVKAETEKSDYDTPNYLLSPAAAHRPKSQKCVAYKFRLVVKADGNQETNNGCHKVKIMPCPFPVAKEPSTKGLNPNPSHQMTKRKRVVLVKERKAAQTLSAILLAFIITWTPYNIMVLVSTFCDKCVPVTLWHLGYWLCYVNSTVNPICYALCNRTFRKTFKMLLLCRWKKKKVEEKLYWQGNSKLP
Alpha-1D adrenergic receptor (Homo sapiens), sequence (P25100 whole entry): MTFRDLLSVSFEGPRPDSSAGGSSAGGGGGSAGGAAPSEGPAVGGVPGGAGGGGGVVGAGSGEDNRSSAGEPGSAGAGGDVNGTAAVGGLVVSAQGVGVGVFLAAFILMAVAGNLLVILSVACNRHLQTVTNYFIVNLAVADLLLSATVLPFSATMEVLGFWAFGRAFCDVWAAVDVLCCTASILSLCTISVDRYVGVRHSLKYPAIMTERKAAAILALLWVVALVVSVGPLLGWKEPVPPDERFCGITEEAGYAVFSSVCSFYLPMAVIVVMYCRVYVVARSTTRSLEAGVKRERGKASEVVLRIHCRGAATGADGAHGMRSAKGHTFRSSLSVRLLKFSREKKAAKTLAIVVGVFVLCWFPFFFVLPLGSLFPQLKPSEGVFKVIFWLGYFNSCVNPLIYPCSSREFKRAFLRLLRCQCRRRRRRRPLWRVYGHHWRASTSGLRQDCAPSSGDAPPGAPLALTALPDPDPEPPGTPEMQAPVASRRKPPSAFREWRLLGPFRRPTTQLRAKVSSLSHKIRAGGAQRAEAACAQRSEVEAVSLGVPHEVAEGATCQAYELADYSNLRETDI
Beta-2 adrenergic receptor (Homo sapiens), sequence (P07550 whole entry, looked up): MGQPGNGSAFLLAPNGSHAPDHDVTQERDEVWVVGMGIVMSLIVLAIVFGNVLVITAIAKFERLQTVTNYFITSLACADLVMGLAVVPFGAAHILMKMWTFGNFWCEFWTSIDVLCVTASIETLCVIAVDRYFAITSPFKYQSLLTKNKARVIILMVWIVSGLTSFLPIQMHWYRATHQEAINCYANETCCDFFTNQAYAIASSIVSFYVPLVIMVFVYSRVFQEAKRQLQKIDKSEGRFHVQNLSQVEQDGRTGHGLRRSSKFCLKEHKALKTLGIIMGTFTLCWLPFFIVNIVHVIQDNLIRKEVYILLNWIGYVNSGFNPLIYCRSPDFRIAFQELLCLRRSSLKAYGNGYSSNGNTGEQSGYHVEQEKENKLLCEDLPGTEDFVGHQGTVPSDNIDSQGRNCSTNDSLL
Sodium-dependent dopamine transporter (Homo sapiens), sequence (Q01959 whole entry): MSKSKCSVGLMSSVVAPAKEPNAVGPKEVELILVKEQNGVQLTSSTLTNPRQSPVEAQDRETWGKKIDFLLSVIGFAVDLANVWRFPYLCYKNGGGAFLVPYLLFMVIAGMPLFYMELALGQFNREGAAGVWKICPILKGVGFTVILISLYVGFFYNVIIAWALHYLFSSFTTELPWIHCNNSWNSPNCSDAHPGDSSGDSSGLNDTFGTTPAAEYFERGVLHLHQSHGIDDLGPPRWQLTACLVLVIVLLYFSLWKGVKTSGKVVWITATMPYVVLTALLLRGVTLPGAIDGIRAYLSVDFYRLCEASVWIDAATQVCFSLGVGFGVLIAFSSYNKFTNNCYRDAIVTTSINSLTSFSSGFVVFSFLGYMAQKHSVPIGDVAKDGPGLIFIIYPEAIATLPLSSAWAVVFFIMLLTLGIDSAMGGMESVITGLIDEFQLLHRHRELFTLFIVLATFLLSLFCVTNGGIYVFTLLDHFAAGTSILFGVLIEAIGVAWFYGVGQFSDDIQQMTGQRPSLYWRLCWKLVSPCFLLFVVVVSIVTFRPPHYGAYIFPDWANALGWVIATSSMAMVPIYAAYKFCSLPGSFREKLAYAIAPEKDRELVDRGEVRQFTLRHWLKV
T4 sequence (Q9H0E9 whole entry): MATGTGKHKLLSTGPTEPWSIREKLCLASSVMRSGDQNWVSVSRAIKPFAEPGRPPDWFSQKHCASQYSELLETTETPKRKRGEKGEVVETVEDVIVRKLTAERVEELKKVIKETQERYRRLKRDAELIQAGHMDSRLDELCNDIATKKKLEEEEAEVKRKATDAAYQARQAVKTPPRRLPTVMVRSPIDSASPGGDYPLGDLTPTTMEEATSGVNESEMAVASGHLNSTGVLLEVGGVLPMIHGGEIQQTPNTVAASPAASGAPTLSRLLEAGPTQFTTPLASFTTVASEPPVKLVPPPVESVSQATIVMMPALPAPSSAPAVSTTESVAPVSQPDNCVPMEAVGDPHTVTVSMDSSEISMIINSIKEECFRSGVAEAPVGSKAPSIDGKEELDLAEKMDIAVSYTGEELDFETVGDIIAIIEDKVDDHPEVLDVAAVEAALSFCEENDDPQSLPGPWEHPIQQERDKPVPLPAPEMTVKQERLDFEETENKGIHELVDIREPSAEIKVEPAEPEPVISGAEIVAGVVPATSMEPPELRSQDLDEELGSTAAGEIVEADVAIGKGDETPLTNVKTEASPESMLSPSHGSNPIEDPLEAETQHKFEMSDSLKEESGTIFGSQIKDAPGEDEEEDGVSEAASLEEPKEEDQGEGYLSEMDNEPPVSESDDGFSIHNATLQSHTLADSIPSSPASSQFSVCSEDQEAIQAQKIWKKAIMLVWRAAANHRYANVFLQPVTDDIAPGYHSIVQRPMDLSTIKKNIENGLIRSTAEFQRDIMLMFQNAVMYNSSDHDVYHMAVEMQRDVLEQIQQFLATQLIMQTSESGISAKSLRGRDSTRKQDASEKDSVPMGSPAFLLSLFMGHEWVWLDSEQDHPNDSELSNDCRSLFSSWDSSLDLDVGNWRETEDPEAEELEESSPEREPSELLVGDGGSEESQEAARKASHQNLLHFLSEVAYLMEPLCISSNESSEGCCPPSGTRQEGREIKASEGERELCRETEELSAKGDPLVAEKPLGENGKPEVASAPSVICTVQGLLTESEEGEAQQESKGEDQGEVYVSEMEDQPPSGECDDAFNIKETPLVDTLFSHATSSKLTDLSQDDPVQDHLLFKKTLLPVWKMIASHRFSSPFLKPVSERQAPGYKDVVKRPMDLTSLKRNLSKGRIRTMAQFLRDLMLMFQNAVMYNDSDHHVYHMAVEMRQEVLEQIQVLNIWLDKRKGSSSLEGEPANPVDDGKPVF
C-C motif chemokine 2, sequence (P13500 whole entry): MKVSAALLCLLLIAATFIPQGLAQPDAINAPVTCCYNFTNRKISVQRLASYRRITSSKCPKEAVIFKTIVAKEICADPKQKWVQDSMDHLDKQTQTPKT

inhibition [1]: -4.38% | Ki (D(4) dopamine receptor; read-out: Ki): 1.01 µM | Ki (D(4) dopamine receptor; read-out: pKi (converted)): 1.01 µM | Kd [2]: 31.6 µM | inhibition [3]: 97.9% | inhibition [4]: 11.8% | inhibition [5]: 9.01% | inhibition [6]: -6.42% | inhibition [7]: 33.2% | inhibition (Rattus norvegicus): 3.9% | inhibition [8]: 8.58% | inhibition [9]: 31.8% | inhibition [10]: 1.68% | inhibition [11]: 3.37% | inhibition [12]: 24.7% | Kd [13]: 0.1 µM | IC50 (HL-60): 0.39 µM (active) | inhibition [14]: -3.97% | Kd [15]: 31.6 µM | Kd [16]: 31.6 µM | Kd [17]: 25.1 µM | Kd [18]: 31.6 µM | inhibition [19]: -0.72% | inhibition [20]: 14.8% | inhibition [21]: 0.27% | pIC50 [22]: 4.7 | inhibition [23]: 14% | Kd [24]: 25.1 µM | Kd [25]: 31.6 µM | inhibition [26]: -5.01% | Kd [27]: 31.6 µM | Kd [28]: 31.6 µM | inhibition [29]: 15.9% | inhibition [30]: -9.93% | Kd (Peregrin): 31.6 µM | Kd [31]: 31.6 µM | inhibition [32]: 30.5% | Kd [33]: 31.6 µM | inhibition [34]: 19.8% | pIC50 [35]: 6.8 | inhibition [36]: 16.3% | Kd (CREB-binding protein): 31.6 µM | pIC50 [37]: 4.7 | inhibition [38]: 9.26% | Kd [39]: 31.6 µM | Kd [40]: 31.6 µM | inhibition [41]: 24.1% | inhibition [42]: 36.6% | inhibition [43]: -1.12% | Kd [44]: 31.6 µM | Kd [45]: 31.6 µM | inhibition [46]: 17.7% | IC50 (THP-1): 0.258 µM (active) | inhibition [47]: -0.37% | IC50 (C-C motif chemokine 2): 0.67 µM (active) | inhibition [48]: 17.3% | pIC50 [49]: 6.2 | Kd [50]: 31.6 µM | pIC50 [51]: 7 | inhibition [52]: -9.42% | inhibition [53]: 27.3% | IC50 (MV4-11): 0.125 µM (active) | inhibition [54]: 28.5% | IC50 (Interleukin-6): 3.55 µM (active) | inhibition [55]: 17.1% | Kd (Protein polybromo-1): 31.6 µM | inhibition [56]: 13.8% | Kd [57]: 31.6 µM | pIC50 [58]: 4.9 | inhibition [59]: 25.2%
SMILES: Cc1cc2c(-c3ccco3)cnc(N[C@@H]3CCN(C)C[C@H]3C(=O)NC3CCCCC3)c2[nH]c1=O [GSK789]
IC50 (Tumor necrosis factor): 0.87 µM (active)

inhibition [3]: 17.4% | inhibition [4]: 1.98% | inhibition [5]: 15.5% | inhibition [6]: 33.1% | inhibition [7]: 35.4% | inhibition (Rattus norvegicus): -8.18% | inhibition [8]: 10.8% | inhibition [9]: 1.04% | inhibition [10]: 2.98% | inhibition [11]: 1.93% | inhibition [12]: 86.3% | inhibition [14]: 9.8% | inhibition [19]: 11.7% | inhibition [60]: 28.9% | inhibition [20]: 14.9% | inhibition [21]: 5.25% | pIC50 [22]: 4.7 | inhibition [23]: 3.86% | inhibition [26]: 2.71% | inhibition [30]: -2.09% | inhibition [32]: 32.4% | inhibition [34]: 4.04% | pIC50 [35]: 5.4 | inhibition [36]: 7.44% | pIC50 [37]: 4.8 | inhibition [38]: 44.1% | inhibition [41]: 10.1% | inhibition [42]: 7.87% | inhibition [43]: 21.6% | inhibition [61]: 9.79% | inhibition [46]: 13.8% | inhibition [47]: 28.5% | inhibition [48]: 16.9% | pIC50 [49]: 5.2 | pIC50 [51]: 5.6 | Ki [62]: 2.54 µM | inhibition [52]: 12% | inhibition [53]: 21.2% | inhibition [54]: 8.66% | inhibition [55]: -3% | inhibition [56]: 35.1% | pIC50 [58]: 5.1 | inhibition [59]: 10.1%
SMILES: Cc1cc2c(-c3ccco3)cnc(N[C@H]3CCN(C)C[C@@H]3C(=O)NC3CCCCC3)c2[nH]c1=O [GSK791]
